According to ChEMBL document CHEMBL1201862, “PubChem BioAssay data set” (2004):
Counter-ions that a name gives are not always drawn. Active and inactive are the calls of the source.

Key:
Coagulation factor XII = biological target: T1, Coagulation factor XII (Homo sapiens, UniProt P00748); assay: Factor XIIa Dose Response Confirmation from Single Well HTS. [Related pubchem assays (depositor defined):AID701]; type: functional
T1 sequence (P00748 whole entry): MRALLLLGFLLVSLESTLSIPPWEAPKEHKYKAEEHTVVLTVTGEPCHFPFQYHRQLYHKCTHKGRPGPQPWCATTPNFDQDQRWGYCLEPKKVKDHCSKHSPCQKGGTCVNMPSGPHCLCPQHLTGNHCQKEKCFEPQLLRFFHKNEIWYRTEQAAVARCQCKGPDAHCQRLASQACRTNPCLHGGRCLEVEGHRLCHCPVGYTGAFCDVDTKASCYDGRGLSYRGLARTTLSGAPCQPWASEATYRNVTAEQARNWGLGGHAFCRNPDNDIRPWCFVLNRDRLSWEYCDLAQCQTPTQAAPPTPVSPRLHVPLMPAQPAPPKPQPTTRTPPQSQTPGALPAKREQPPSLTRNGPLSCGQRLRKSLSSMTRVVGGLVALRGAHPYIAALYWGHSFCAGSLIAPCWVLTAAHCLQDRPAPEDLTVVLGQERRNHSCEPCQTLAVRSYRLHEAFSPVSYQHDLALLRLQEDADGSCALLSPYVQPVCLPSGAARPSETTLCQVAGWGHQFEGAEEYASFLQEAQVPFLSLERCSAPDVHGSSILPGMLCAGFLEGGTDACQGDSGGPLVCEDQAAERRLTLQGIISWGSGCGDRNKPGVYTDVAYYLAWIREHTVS

[1] = THP-1 cell cytotoxicity, dose response, cytotoxicity control for non-replicating M. tuberculosis project (AID 489025); type: functional
[2] = HepG2 cell cytotoxicity, dose response, cytotoxicity control for non-replicating M. tuberculosis project (AID 489018); type: functional; details: Mycobacterium tuberculosis
[3] = biological target: T2, Ubiquitin-conjugating enzyme E2 N (Homo sapiens, UniProt P61088); type: functional;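 note: Dose-response confirmation in a TR-FRET assay detecting UBC13-driven polyubiquitin chain formation, inhibition measured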
T2 sequence (P61088 whole entry): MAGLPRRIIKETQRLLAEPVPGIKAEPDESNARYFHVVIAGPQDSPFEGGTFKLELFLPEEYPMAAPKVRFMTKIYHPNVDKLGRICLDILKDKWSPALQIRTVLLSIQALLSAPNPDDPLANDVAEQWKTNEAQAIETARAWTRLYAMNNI

[4] = Vero E6 cell cytotoxicity, dose response, cytotoxicity control for non-replicating M. tuberculosis project, secondary assay (AID 492998); type: functional, VeroE6; details: Vero C1008
Nonstructural protein 1 = Nonstructural protein 1 (Influenza A virus, UniProt Q194T2); type: functional, Influenza A virus (A/California/07/2009(H1N1))
Sequence of Nonstructural protein 1 (Q194T2 whole entry): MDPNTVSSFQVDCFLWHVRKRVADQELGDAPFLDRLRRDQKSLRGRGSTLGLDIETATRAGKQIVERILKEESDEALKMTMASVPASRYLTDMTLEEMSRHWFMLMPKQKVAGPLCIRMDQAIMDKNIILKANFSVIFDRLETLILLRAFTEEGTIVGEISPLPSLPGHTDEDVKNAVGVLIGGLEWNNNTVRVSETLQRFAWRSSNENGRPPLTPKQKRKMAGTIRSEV

cells = type: functional
[5] = Shn3 3'UTR reporter inhibitors, dose response, cell-based, Clone20 osteoblasts, firefly luciferase, cherry-picked (AID 624132); type: functional;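 note: firefly luciferase luminescence from reporter carrying the Shn3 3'UTR in osteoblasts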
Melanocortin receptor 4 = Melanocortin receptor 4 (Homo sapiens, UniProt P32245); type: functional, cell-based;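 note: Cell-based assay with luminescence read-out, confirmatory dose-response testing for agonist activity of biased ligands at MC4R; human U2OS cells with tagged receptor and beta-arrestin; potency of agonists that increase receptor coupling to beta-arrestin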
Sequence of Melanocortin receptor 4 (P32245 whole entry): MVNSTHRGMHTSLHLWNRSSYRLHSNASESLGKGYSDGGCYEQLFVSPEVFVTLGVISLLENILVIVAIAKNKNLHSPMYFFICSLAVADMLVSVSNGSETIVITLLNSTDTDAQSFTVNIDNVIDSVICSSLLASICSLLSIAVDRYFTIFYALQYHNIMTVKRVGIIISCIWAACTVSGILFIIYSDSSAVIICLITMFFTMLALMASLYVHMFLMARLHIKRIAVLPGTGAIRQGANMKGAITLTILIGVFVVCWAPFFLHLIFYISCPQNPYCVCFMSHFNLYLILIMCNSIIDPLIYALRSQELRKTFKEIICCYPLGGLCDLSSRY

[6] = HepG2 cell cytotoxicity, dose response, cytotoxicity control for Shn3 inhibitor project, CellTiter-Glo, cherry-picked (AID 624134); type: functional, cell-based
[7] = inhibitors of intracellular T. cruzi replication, confirmation, NIH3T3 host cells, beta-gal luminescence (AID 2044); type: functional, cell-based;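 note: intracellular parasites grown in NIH/3T3 mouse fibroblasts as host cells; luminescent beta-galactosidase reporter signal from transgenic T. cruzi replicating inside host cells; inhibitors lower the luminescence signal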
[8] = cytotoxicity toward NIH3T3 fibroblasts, dose response, counter-screen, cell-based, ATP luminescence, mouse fibroblasts (AID 2010); type: functional;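 note: cells exposed to compound for about 90 hours before reading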
[9] = biological target: 26S proteasome non-ATPase regulatory subunit 14 (Homo sapiens, UniProt O00487); assay: inhibition of proteasome subunit RPN11 – biochemical, fluorescence polarization, uHTS hits, confirmation (AID 602368); type: functional
Sequence of 26S proteasome non-ATPase regulatory subunit 14 (O00487 whole entry): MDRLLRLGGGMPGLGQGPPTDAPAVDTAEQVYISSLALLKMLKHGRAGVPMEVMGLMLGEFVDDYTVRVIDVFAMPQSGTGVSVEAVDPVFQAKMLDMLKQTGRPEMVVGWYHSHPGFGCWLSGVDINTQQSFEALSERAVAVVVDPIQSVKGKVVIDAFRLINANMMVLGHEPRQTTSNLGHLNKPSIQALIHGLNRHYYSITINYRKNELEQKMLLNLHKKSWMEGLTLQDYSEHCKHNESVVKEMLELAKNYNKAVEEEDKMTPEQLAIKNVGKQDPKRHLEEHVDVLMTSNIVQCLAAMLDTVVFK

[10] = biological target: 72 kDa type IV collagenase (Homo sapiens, UniProt P08253); assay: Dose Response validation of uHTS RPN11 inhibitor hits using a MMP-2 Fluorescence assay.; type: functional
Sequence of 72 kDa type IV collagenase (P08253 whole entry): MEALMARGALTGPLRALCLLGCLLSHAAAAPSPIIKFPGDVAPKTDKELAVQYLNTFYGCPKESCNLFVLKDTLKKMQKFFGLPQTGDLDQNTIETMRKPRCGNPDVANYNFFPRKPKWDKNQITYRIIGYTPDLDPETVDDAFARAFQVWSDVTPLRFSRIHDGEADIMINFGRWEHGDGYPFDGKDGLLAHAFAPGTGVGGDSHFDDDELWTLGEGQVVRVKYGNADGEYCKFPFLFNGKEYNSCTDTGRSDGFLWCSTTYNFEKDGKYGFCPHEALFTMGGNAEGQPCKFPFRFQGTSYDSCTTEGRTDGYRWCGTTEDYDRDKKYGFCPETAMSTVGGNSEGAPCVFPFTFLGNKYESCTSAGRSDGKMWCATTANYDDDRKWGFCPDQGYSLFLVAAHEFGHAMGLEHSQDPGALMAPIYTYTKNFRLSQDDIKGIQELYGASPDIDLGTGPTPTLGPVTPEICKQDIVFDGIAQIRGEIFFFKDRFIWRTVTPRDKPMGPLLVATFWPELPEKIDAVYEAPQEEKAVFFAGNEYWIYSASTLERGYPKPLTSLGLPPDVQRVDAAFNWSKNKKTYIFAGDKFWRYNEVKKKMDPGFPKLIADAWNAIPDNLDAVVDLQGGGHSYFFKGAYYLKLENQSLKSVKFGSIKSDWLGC

Prothrombin = Prothrombin (Bos taurus, UniProt P00735); assay: thrombin inhibition, dose response, biochemical, fluorescence polarization, uHTS hits (AID 602369); type: functional
BJ [11] = assay: cytotoxicity toward BJ-TERT fibroblasts, dose response, cell-based, RAS-independent, luminescence (AID 1933); type: functional; details: Homo sapiens
BJ [12] = assay: cells; type: functional, cell-based; details: Homo sapiens
[13] = biological target: Luciferin 4-monooxygenase (Photinus pyralis, UniProt P08659); assay: firefly luciferase enzyme inhibitors, dose response, biochemical, luminescence (AID 1891)
Sequence of Luciferin 4-monooxygenase (P08659 whole entry): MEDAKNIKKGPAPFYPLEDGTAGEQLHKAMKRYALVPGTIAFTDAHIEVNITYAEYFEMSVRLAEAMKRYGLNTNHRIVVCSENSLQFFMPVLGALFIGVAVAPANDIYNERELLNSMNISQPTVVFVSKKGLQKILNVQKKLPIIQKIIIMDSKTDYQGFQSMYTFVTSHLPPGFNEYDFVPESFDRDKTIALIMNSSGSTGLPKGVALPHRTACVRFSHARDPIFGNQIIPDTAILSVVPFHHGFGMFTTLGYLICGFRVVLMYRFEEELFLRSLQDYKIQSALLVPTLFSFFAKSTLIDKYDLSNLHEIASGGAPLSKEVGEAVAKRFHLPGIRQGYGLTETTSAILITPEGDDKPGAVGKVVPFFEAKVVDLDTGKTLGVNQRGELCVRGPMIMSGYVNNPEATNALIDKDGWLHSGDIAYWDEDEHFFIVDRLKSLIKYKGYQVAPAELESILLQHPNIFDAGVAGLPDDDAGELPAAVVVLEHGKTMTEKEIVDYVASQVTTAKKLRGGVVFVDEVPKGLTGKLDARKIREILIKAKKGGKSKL

[14] = Luminescence Cell-Based Dose Confirmation HTS to Identify Inhibitors of Platelet Dense Granule Release. [Related pubchem assays: 1663 (Primary HTS), 1678 (Summary of Project)]; type: functional
Estrogen receptor beta [15] = biological target: T3, Estrogen receptor beta (Homo sapiens, UniProt Q92731);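 note: recombinant ER-beta bound to coactivator SRC1 peptide in presence of estradiol agonist; inhibitors block coactivator peptide binding and lower the FRET signal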
T3 sequence (Q92731 whole entry): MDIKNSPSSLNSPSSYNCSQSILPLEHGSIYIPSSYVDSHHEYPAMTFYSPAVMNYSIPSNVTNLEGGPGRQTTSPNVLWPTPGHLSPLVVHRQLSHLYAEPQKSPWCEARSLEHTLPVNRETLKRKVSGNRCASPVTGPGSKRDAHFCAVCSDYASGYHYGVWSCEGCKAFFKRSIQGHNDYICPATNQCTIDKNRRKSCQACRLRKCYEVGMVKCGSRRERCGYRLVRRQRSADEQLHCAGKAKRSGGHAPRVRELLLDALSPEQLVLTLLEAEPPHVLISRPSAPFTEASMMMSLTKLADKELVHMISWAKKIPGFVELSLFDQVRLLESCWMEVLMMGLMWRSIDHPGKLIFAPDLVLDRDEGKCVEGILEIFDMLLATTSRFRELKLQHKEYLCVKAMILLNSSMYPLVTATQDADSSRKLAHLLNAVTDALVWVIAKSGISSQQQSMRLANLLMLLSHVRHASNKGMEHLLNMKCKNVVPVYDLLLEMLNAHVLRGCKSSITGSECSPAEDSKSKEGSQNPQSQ

Estrogen receptor beta [16] = biological target: T3, Estrogen receptor beta; assay: ERβ–SRC-3 coactivator interaction inhibitors, confirmation, orthogonal assay, biochemical, ELISA, streptavidin-HRP readout (AID 1060)
BJ [17] = assay: cytotoxicity toward BJ-TERT-LT-ST fibroblasts, dose response, cell-based, RAS-independent, luminescence (AID 1935); type: functional; details: Homo sapiens;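 note: BJ fibroblasts immortalized with TERT plus LT and ST oncogenes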
[18] = cytotoxicity toward DRD oncogenic fibroblasts, dose response, cell-based, non-viral oncogenic, luminescence (AID 1934); type: functional; details: Homo sapiens
[19] = cytotoxicity in HEK-293T cells, dose response, cytotoxicity control for TCR NF-kB inhibitor project, luminescence, T-cell screen hits (AID 489026); type: functional, cell-based;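 note: cells exposed to compound about 14 hours before the viability readout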
BJ [20] = assay: cytotoxicity toward Ras-transformed BJeLR fibroblasts, dose response, cell-based, alamar blue fluorescence, cherrypicked samples (AID 2631); type: functional; details: Homo sapiens;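 note: confirmatory dose-response assay in RAS-dependent BJ fibroblasts engineered with TERT, LT and ST, with cytotoxicity read by fluorescence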
[21] = Luminescence Cell-Based Dose Confirmation HTS to Identify Activators of 5'UTR Stem-Loop Driven Alpha-Synuclein mRNA Translation in H4 Neuroglioblastoma Cells. [Related pubchem assays: 1829 (Project Summary), 1814 (Primary HTS)]; type: functional
[22] = Luminescence Cell-Based Dose Response HTS to Identify Activators of Luciferase Translation or Activity in H4 […] Cells. [Related pubchem assays: 1829 (Project Summary), 1814 (Primary HTS)]; type: functional
H4 = assay: Luminescence Cell-Based Dose Response HTS to Identify Activators of 5'UTR Stem-Loop Driven Prion Protein mRNA Translation in H4 Neuroglioblastoma Cells. [Related pubchem assays: 1829 (Project Summary), 1814 (Primary HTS)]; type: functional; details: Homo sapiens
[23] = biological target: Eukaryotic translation initiation factor 4E (Mus musculus, UniProt P63073); assay: eIF4E–eIF4G protein interaction inhibitors, dose response, biochemical, TR-FRET (AID 855); type: functional;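 note: potency for disrupting eIF4E binding to eIF4GI seen as loss of FRET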
Sequence of Eukaryotic translation initiation factor 4E (P63073 whole entry): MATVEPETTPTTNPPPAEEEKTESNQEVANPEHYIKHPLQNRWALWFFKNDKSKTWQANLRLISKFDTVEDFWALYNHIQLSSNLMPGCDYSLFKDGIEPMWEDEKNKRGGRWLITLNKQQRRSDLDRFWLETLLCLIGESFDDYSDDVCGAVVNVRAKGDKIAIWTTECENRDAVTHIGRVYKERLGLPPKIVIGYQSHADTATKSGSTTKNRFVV

[24] = biological target: T4, High affinity choline transporter 1 (Homo sapiens, UniProt Q9GZV3); assay: CHT inhibitors, dose response, cell-based, 5-point CRC, membrane potential dye (AID 504840); type: functional
T4 sequence (Q9GZV3 whole entry): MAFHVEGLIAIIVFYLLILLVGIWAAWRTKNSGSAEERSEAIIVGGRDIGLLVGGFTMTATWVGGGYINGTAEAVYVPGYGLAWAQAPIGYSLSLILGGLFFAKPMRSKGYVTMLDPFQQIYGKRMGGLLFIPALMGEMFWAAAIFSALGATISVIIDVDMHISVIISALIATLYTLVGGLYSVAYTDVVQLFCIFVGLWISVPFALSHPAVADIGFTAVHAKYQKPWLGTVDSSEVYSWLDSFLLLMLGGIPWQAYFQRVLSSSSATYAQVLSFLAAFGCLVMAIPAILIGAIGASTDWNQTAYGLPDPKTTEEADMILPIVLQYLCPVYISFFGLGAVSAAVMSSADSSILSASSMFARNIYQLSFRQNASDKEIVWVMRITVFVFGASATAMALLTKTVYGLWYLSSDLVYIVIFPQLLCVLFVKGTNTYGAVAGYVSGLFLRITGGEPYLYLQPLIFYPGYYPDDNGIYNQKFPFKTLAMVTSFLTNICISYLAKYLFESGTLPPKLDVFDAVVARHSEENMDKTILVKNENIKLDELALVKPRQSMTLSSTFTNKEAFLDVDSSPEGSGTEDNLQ

[25] = HEp-2 cell cytotoxicity, dose response, cytotoxicity control for RSV inhibitor project, HTS (AID 2410); type: functional; details: human respiratory syncytial virus
[26] = biological target: G-protein coupled receptor 55 (Homo sapiens, UniProt Q9Y2T6); assay: GPR55 antagonists blocking LPI-driven arrestin recruitment, primary screen, imaging, U2OS, beta-arrestin-GFP, LPI agonist (AID 2013); type: functional;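 note: antagonist potency measured as reduced agonist-driven arrestin aggregation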
Sequence of G-protein coupled receptor 55 (Q9Y2T6 whole entry): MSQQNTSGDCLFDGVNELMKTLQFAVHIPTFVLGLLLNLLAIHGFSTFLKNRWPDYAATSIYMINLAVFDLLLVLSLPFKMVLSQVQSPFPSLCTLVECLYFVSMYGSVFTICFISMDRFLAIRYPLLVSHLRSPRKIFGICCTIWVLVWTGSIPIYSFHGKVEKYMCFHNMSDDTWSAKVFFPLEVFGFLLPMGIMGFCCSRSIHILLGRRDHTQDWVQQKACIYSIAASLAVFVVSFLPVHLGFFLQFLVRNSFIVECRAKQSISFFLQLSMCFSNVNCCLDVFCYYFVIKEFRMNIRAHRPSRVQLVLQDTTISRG

HEK293 = assay: inhibitors of LMP1-driven NF-kB reporter, dose response, cell-based, HEK293, luciferase, cherry-pick (AID 588343); type: functional; details: Homo sapiens
[27] = biological target: Heat shock protein HSP 90-alpha (Homo sapiens, UniProt P07900); type: functional, organism-based
Vero [28] = assay: cells; type: functional, cell-based; details: Chlorocebus sabaeus
Vero [29] = assay: cells; type: functional; details: Chlorocebus sabaeus
[30] = biological target: T5, Low molecular weight phosphotyrosine protein phosphatase (Homo sapiens, UniProt P24666); type: functional; details: read-out: IC50_Mean;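 note: Dose-response confirmation assay measuring inhibition of LMPTP enzyme activity by fluorescence intensity read-out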
T5 sequence (P24666 whole entry): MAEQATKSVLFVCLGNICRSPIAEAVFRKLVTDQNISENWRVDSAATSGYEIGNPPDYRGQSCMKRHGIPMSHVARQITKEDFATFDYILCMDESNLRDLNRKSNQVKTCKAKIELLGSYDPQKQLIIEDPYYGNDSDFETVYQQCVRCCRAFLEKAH

[31] = control 3'UTR Renilla luciferase suppression, dose response, counter-screen for Shn3 inhibitor project, cell-based, Clone20-Shn3RL, cherry-picked (AID 624133); type: functional
[32] = Fluorescence-based cell-based high throughput dose response assay for inhibitors of the interaction of nucleotide-binding oligomerization domain containing 2 (NOD2) and the receptor-interacting serine-threonine kinase 2 (RIPK2).; type: functional, Homo sapiens; details: Homo sapiens

In the case of `O=C(c1ccccc1)N1CCCC(c2nc(O)c3nnn(Cc4ccccc4)c3n2)C1` (stereo not given), the IC50 (Coagulation factor XII) is reported as > 50 µM (inactive).
For `CCc1ccc(OCCNc2cc(N3CCNC(C)C3)ccc2[N+](=O)[O-])cc1` (stereo not given), the CC50 [1] was 12.4 µM (active), the CC50 [2] was 12.4 µM (active) and the IC50 [3] was > 20 µM (inactive). The CC50 [4] was 13.9 µM (active), the IC50 (Nonstructural protein 1) was 37.4 µM (active) and the IC50 (cells) was 24 µM (active). The AC50 [5] was 15.6 µM (active), the EC50 (Melanocortin receptor 4) was > 89.2 µM (inactive) and the AC50 [6] was 7.97 µM (active).
With `Cc1ccc(-c2ccc(/C=C3\SC(N4CCOCC4)=NC3=O)o2)cc1` the EC50 [7] was 655 nM (active), the EC50 [8] was 17.1 µM (active) and the IC50 [9] was 9.69 µM (active). For the same compound, the IC50 [10] was > 100 µM (inactive) and the IC50 (Prothrombin) was 7.72 µM (active).
For `c1ccc(-c2noc(-c3ccc4c(c3)OCO4)n2)nc1`, the EC50 (BJ [11]) was 2.1 µM (inconclusive), the EC50 (BJ [12]) was 1.47 µM (active) and the EC50 [13] was 105 nM (active). The EC50 [14] was 1.1 µM (active), the IC50 (Estrogen receptor beta [15]) was 37.8 µM (not active) and the IC50 (Estrogen receptor beta [16]) was > 109 µM (not active). The EC50 (BJ [17]) was 6.29 µM (inconclusive), the EC50 [18] was 1.67 µM (active) and the IC50 [19] was > 80 µM (inactive). For the same compound, the EC50 (BJ [20]) was > 133 µM (inactive).
With `O=C(OCC(=O)c1c[nH]c2ccccc12)c1cccc(O)c1` the EC50 [21] was 5.16 µM (active), the EC50 [22] was 12.3 µM (active) and the EC50 (H4) was 8.02 µM (active). The IC50 [23] was > 64 µM (inactive) and the IC50 [24] was 15.8 µM (active).
For `O=C(Nc1nc2n(n1)C(c1ccc(Cl)cc1)CC(c1ccc(Cl)cc1)N2)c1ccco1` (stereo not given), the CC50 [25] was 12.8 µM (active) and the IC50 (Coagulation factor XII) was > 50 µM (inactive).
In the case of `CC(=O)c1ccc(OC(=O)c2ccc(Br)o2)cc1`, the IC50 (Coagulation factor XII) is reported as 18.5 µM (active).
For `CCc1ccc(C(=O)NC(=S)Nc2ccccc2N2CCOCC2)cc1`, the IC50 [26] was 1.2 µM (active).
In the case of `CCOC(=O)c1cnc2c(c(C)nn2C)c1Oc1ccc(Cl)cc1`, the IC50 [26] is reported as 3.54 µM (active).
With `CC(=NNc1nc2ccccc2s1)c1ncccn1` the IC50 (Nonstructural protein 1) was 5.05 µM (active), the AC50 (HEK293) was 14 µM (active) and the AC50 [27] was 1.61 µM (active). The IC50 (Vero [28]) was > 25 µM (active) and the CC50 (Vero [29]) was 9.06 µM (active).
For `O=C(NCc1ccccn1)c1cn(CCc2ccccc2)nn1`, the IC50 (Coagulation factor XII) was > 50 µM (inactive).
In the case of `CCN(C(C)=O)c1cnc(C=NNC(N)=S)c2ccccc12`, the IC50 (Nonstructural protein 1) is reported as 6.69 µM (active).
With `CC(C1SC(=S)NC1=O)C1SC(=S)NC1=O` (stereo not given) the IC50 [9] was 45.4 µM (active), the IC50 [10] was > 100 µM (inactive) and the IC50 (Prothrombin) was 52.4 µM (active). For the same compound, the IC50 [30] was 80 µM (inactive).
With `CCN(CC)CCN1C(=O)/C(=C\c2ccc(Cl)c([N+](=O)[O-])c2)S/C1=N\c1ccc(OC)cc1` the EC50 (BJ [11]) was 2.1 µM (active), the EC50 (BJ [12]) was 4.01 µM (active) and the EC50 (BJ [17]) was 1.65 µM (active). For the same compound, the EC50 [18] was 2.86 µM (active), the EC50 (BJ [20]) was 0.537 µM (active) and the CC50 (Vero [29]) was 15.7 µM (active). For the same compound, the AC50 [5] was 2.11 µM (active), the AC50 [6] was 16.8 µM (active) and the AC50 [31] was 10.4 µM (active). For the same compound, the IC50 [32] was 2.75 µM (active).
In the case of `CC1(C)CC(=O)C(/C=N/CC2CCN(C(=O)Cc3ccccc3)CC2)=C(O)C1`, the IC50 [9] is reported as > 100 µM (inactive), the IC50 [10] is reported as > 100 µM (inactive) and the IC50 (Prothrombin) is reported as > 100 µM (inactive).
For `OC(CCCN1CCCCC1)(c1ccccc1)c1ccccc1` [DIPHENIDOL HYDROCHLORIDE], the AC50 (HEK293) was 323 µM (active).
